From the NIST ThermoML archive (doi:10.1021/je700152c)

Legend:
[1] = Molar enthalpy of transition or fusion; conditions: Adiabatic calorimetry
[2] = molar heat capacity at constant pressure; xn = mol fraction of the nth substance listed; conditions: 101 kPa, Liquid, x1 = 0.37

CCCCn1cc[n+](C)c1.Cc1ccc(S(=O)(=O)[O-])cc1 [1-butyl-3-methylimidazolium tosylate]
[1]
Conditions	Molar enthalpy of transition or fusion [kcal/mol]
Crystal 1	5.16
Crystal 2	0.0464
Metastable crystal	4.76

CCCCn1cc[n+](C)c1.Cc1ccc(S(=O)(=O)[O-])cc1 [1-butyl-3-methylimidazolium tosylate] + O
[2]
Conditions	molar heat capacity at constant pressure [J/K/mol]
78.74 K	66.26
81.34 K	67.77
83.37 K	68.91
85.4 K	70.17
87.43 K	71.43
89.46 K	72.69
91.5 K	73.83
93.53 K	75.09
95.58 K	76.35
97.63 K	77.49
99.68 K	78.62
101.73 K	79.76
103.78 K	81.02
105.84 K	82.16
107.9 K	83.29
109.96 K	84.43
112.02 K	85.57
114.09 K	86.7
116.17 K	87.84
118.24 K	88.97
120.32 K	90.23
122.39 K	91.37
124.47 K	92.51
126.55 K	93.64
128.64 K	94.78
130.73 K	96.04
132.81 K	97.3
134.9 K	98.31
136.98 K	99.57
139.08 K	100.71
141.17 K	101.85
143.27 K	103.11
145.36 K	104.24
147.46 K	105.38
149.56 K	106.64
151.66 K	107.78
153.77 K	108.91
155.87 K	110.17
157.98 K	111.44
160.09 K	112.57
162.2 K	113.71
164.31 K	114.97
166.42 K	116.23
168.54 K	117.37
170.66 K	118.63
172.78 K	119.89
174.9 K	121.03
177.02 K	122.29
179.14 K	123.55
181.27 K	124.94
183.39 K	126.58
185.51 K	128.6
187.64 K	131.63
189.76 K	138.07
191.84 K	148.79
193.9 K	159.02
195.93 K	176.18
198 K	179.59
200.12 K	180.34
202.26 K	181.1
204.39 K	181.73
206.52 K	182.24
208.65 K	182.87
210.79 K	183.5
212.93 K	184.13
215.07 K	184.63
217.23 K	185.39
219.38 K	185.9
221.54 K	186.65
223.7 K	187.28
225.87 K	188.04
